In patent publication US6517838B1, “Decorin binding protein essential peptides and methods of use” (The Texas A&M University System, priority 2000, dated 2003):
“And” between values parts separate entries of the source, which are not always exact repeats. Equal values may be shown once. Read-outs that look alike come from different tables or passages of the source. Ends that are not written are not given here.

T1: decorin from bovine fetal skin (bovine), P21793
T1 chain: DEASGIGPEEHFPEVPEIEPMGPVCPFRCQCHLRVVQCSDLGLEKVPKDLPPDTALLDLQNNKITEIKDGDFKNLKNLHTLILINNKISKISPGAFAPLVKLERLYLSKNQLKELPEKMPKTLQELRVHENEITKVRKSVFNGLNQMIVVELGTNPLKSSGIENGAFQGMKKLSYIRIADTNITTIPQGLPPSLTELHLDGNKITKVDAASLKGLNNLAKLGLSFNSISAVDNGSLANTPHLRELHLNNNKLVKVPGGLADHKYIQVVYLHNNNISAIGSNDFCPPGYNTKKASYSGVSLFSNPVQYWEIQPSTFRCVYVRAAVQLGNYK


Tests used:
decorin [1] = target: T2, decorin (Bos taurus, UniProt P21793); experiment: Inhibition ELISA: decorin attachment to DbpA-coated wells; type: binding, bovine; conditions: 5 μg inhibitor pre-incubated with biotin-conjugated decorin, FIG. 3
T2 construct: Decorin from bovine fetal skin was purified and stored in 4 M guanidine hydrochloride; from tissue; host or cells: decorin from bovine fetal skin; DbpA made in E. coli JM101
Protocol: Immulon-1 microtiter plate wells were coated with 0.4 μg of DbpA in 50 μl of PBS over night at 4° C. The wells were washed and then blocked as described above. During the blocking step, 0.12 μg/ml of biotin-conjugated decorin was pre-incubated at 37° C. with 5 μg of each DbpA-derived peptide or DbpA. After washing, 100 μl of the biotin conjugated decorin/inhibitor mixture was added to the wells and incubated for 1 h. After washing, the wells were incubated with AP-conjugated streptavidin and developed as described above.
(§1) Decorin from bovine fetal skin was purified and stored in 4 M guanidine hydrochloride at −80° C. and dialyzed extensively against PBS before use. Decorin was labeled with digoxigenin-3-O-methylcarbonyl-ε-aminocaproic acid-N-hydroxy-succinimide ester (digoxigenin) (Boehringer Mannheim, Indianapolis. Ind.) according to the manufacturer's instructions and stored at −20° C. To label decorin with biotin, 7.5 mg of NHS-LC-Biotin (sulfosuccinimidyl-6-(biotinamido) hexanoate) (Pierce, Rockford, Ill.) was dissolved in 100 μl of dimethyl sulfoxide and combined with 0.5 mg of decorin and 0.5 ml of 0.2 M sodium borate (pH 8.0) in a total reaction volume of 1 ml.
Confirmation of the critical binding sites in DbpA for decorin and of the biophysical stability of these peptides was tested in an inhibition ELISA. DbpA, peptides P2-P9, chemically modified peptides P2 Mod-P9 Mod, and an irrelevant peptide from the Staphylococcus aureus collagen-binding adhesin, CNA4 (OSKITVDNTKNTIDVTIQG) (SEQ ID 36) were used as inhibitors of decorin attachment to DbpA-coated wells.

recombinant DbpA = experiment: Delayed-type hypersensitivity (DTH) to DbpA, footpad swelling in immunized mice; type: in vivo, B. burgdorferi; conditions: C3H/HeJ mice immunized with 20 μg, challenged with 2 μg recombinant DbpA in footpad, 24 h
Protocol: (§2) Mice were immunized with recombinant DbpA (SEQ ID 1), P2 (SEQ ID 3), P4 (SEQ ID 5), P5 (SEQ ID 6), P4/P5 (SEQ ID 5/SEQ ID 6), P9 (SEQ ID 10), or the corresponding lysine modified counterparts (P2 Mod, P4 Mod, P5 Mod or P9 Mod) using the immunization schedule established by Hanson (11). Briefly, mice were immunized with 20 μg of protein or peptide in complete Freund's adjuvant (CFA) (Week 1), boosted at week 4 with the same dose in incomplete Freund's adjuvant (IFA) and infected at week 6.
Native C3H/HeJ mice immunized with DbpA (SEQ ID 1), P2 (SEQ ID 3), P4 (SEQ ID 5), P5 (SEQ ID 6), P4/P5 (SEQ ID 5/SEQ ID 6), P9 (SEQ ID 10), or the corresponding lysine modified counterparts (P2 Mod, P4 Mod, P5 Mod or P9 Mod) were challenged with 2 μg of recombinant DbpA in PBS (50 μl/footpad) 7 weeks after the initial immunization. All footpads were measured before and 24 h after challenge using a spring-loaded micrometer (Mitutoyo, Tokyo, Japan) as described (23). The mice were anesthetized as described above during footpad measurements and injections. Swelling was determined by subtracting the footpad measurements before challenge from those taken 24 h after challenge.
DTH is an in vivo method of testing T cell-dependent immune responses that are manifested by inflammation at the site of antigenic challenge. Mice immunized with DbpA (SEQ ID 1), P2 (SEQ ID 3), P4 (SEQ ID 5), P5 (SEQ ID 6), P4/P5 (SEQ ID 5/SEQ ID 6) combined, P9 (SEQ ID 10), or the corresponding lysine-modified peptides were challenged in the footpad with 2 μg of recombinant DbpA (SEQ ID 1). Footpad measurements were taken before and after challenge as described above. DbpA (SEQ ID 1)-immunized mice developed a significant footpad swelling of 53.3±3.5 (not shown) compared to mice immunized with adjuvant alone or naive mice receiving only the DbpA (SEQ ID 1) challenge. Peptide-immunized mice, with the exception of P2 (SEQ ID 3), also developed a significant DTH response to DbpA (SEQ ID 1) compared to the lysine-modified controls.

[2] = test system: B. burgdorferi strain B31; experiment: Arthritis assessment, histopathology of hind tibiotarsal joints of immunized infected mice; type: in vivo; conditions: for Mean Arthritis Rating: severity score 0-4 by neutrophil infiltrate; for Mean Arthritis Rating / % Incidence (arthritis): day 14 post infection; for % Incidence (arthritis): immunized mice, tibiotarsal joint histology
Protocol: as §2
Mice (15 mice/group) were anesthetized with Metofane (methoxyflurane; Pitman-Moore, Mundelein, Ill.) and 10 mice/ group were infected i.d. at the base of the tail with 10^4 Borrelia in 100 μl of media 6 six weeks after the first immunization. The remaining 5 mice/group were tested for a DTH response to recombinant DbpA. Following infection, mice were bled 7 and 14 days postinfection. Serum was collected for antibody analysis and blood cultured for the detection of live spirochetes by inoculating 5 ml of BSK II medium with 50 μl of blood from each infected mouse and cultured for 2 weeks at 34° C. as described above. Also on day 14 postinfection, mice were sacrificed and one hind tibiotarsal joint, heart, bladder, and a 3 mm skin biopsy from the ear were aseptically removed and inoculated into separate tubes containing 6 ml of BSK II medium with antibiotics (50 μg/ml rifampacin and 100 μg/ml phosphomycin (Sigma), and incubated for 2 weeks at 34° C. as described above. Evidence of arthritis was determined by histopathological examination of formalin-fixed hind tibiotarsal joint samples.
Evidence of arthritis was determined by histopathological examination of formalin-fixed hind tibiotarsal joint samples. Tissues for histological examination were embedded in paraffin and stained with hematoxylin and eosin. All sections were examined without knowledge of the vaccination status of the mouse. Arthritis was scored by one of two methods. A positive/negative assessment was used, as well as assignment of an arthritis severity score. Joints were scored according to the levels of infiltrate (neutrophils) as follows: 0, no arthritis, 1, minimal or rare (≦10% tissue involvement); 2, mild (10-20%); […]; and 4, severe (>50%).
A similar trend was also observed for joints examined for arthritis (Table I). DbpA-(SEQ ID 1), P4-(SEQ ID 5), and P5-(SEQ ID 6) immunized mice had the lowest arthritis ratings (0.2, 1.2, and 0.4, respectively) and lowest arthritis incidence (20, 60, and 20%, respectively).

[3] = test system: B. burgdorferi strain B31; experiment: Joint cultures for spirochetes after infection of immunized mice; type: in vivo; conditions: immunized C3H/HeJ mice, joints 14 days post infection
Protocol: as §2
Low-passage B. burgdorferi strain B31 (passage 5) was used in this study and cultured in BSK II (Barbour-Stoenner-Kelly) medium at 34° C. (22). Bacterial cultures were incubated in CO2-enriched atmosphere in a GasPak chamber (BBL, Baltimore, Md.) containing BBL GasPak Plus envelopes and a GasPak anaerobic indicator (Beckton dickinson, Cockeysville, Md.) until the cells reached log phase. Bacterial counts were determined using dark field microscopy and a Petroff-Hausser chamber.
Mice (15 mice/group) were anesthetized with Metofane (methoxyflurane; Pitman-Moore, Mundelein, Ill.) and 10 mice/ group were infected i.d. at the base of the tail with 10^4 Borrelia in 100 μl of media 6 six weeks after the first immunization. The remaining 5 mice/group were tested for a DTH response to recombinant DbpA. Following infection, mice were bled 7 and 14 days postinfection. […]

[4] = target: T1, decorin from bovine fetal skin …; experiment: inhibition ELISA: biotin-conjugated decorin pre-incubated with 5 ug peptide, added to DbpA-coated wells
[5] = target: T1, decorin from bovine fetal skin …; experiment: as above
decorin [6] = target: T2, decorin; experiment: Binding of biotin-conjugated decorin to protein-coated microtiter wells; design: species or system bovine; conditions: 0.4 μg protein coated, 0.12 μg/ml biotin-decorin, compared to wild-type DbpA
Protocol: as §1
Immulon-1 microtiter plate wells (Dynatech Labs, Chantilly, Va.) were coated with 0.4 μg of DbpA (SEQ ID 1), DbpA mutants and K-mod in 50 μl PBS overnight at 4° C. The wells were washed and then blocked with 200 μl of Super Block (Pierce) for 1 h. After washing, 0.12 μg/ml of biotin-conjugated decorin in 100 μl of Super Block was added to the wells and incubated for 1 h. After washing, 100 μl of a 1:10,000 dilution of alkaline phosphatase (AP)-conjugated streptavidin (1 U/ml) (Boehringer Mannheim) was added and incubated for 1 h. […] The absorbance was determined in a Microplate Reader (Molecular Devices, Menlo Park, Calif.). […]

decorin [7] = target: T2, decorin; experiment: Western ligand blot with digoxigenin-labeled decorin; type: binding, bovine; conditions: SDS-PAGE reducing, probed with digoxigenin-labeled decorin
Protocol: as §1
Proteins (purified DbpA, DbpA site-directed mutants and OspC) were subjected to SDS-PAGE (reducing conditions) and probed with rabbit anti-DbpA polyclonal sera (R625) or with digoxigenin-labeled decorin.
Further, the side chains of lysine residues were chemically modified and the binding properties of the resulting protein examined. […] Both forms of DbpA migrated as two bands, monomers at 20 and 21 kDa and dimers at 40 and 42 kDa for DbpA and chemically modified DbpA (K-mod), respectively. The decorin binding activity of the DbpA and lysine-modified DbpA was examined in a Western ligand blot assay (FIG. 6B).

| Molecule | inhibition of decorin attachment to DbpA-coated wells (decorin [1]) | DTH response to DbpA (in words) (recombinant DbpA) | Mean Arthritis Rating [2] | % Incidence (arthritis) [2] | also measured |
| --- | --- | --- | --- | --- | --- |
| P2: overlapping synthetic 25 amino acid peptide of recombinant DbpA, contains a cystine residue (LLISCGLTGATKIKLESSAKAIVD) [Peptide P2] | 44% and 42% | no response | 1.4 |  |  |
| P4 Mod: lysine modified counterpart of P4 (DAFKDKKTGSGVSENPFILEAKVRA; also: chemically modified lysines) |  |  | 2.0 | 2.0% |  |
| P4: synthetic 25 amino acid DbpA peptide that maps to the K82 region (DAFKDKKTGSGVSENPFILEAKVRA) [Peptide P4] | 64% | response greater than that of control groups but with less intensity | 1.2 | 60% |  |
| P5 Mod: lysine modified counterpart of P5 (AKVRATTVAEKFVIAIEEEATKLKE; also: chemically modified lysines) |  |  | 3.2 | 100% |  |
| P5: synthetic 25 amino acid DbpA peptide that maps to the K82 region (AKVRATTVAEKFVIAIEEEATKLKE) [Peptide P5] | 92% | significant responses | 0.4 | 20% | arthritis incidence and severity (in words) ([2]; immunized infected mice): lowest; positive joint cultures [3]: 60% |
| P9 Mod: lysine modified counterpart of P9 (REKLQRVHKKNQDTLKKKNTEDSTAKS; also: chemically modified lysines) |  |  | 2.0 | 80% |  |
| P9: synthetic 25 amino acid DbpA peptide containing K163 and K170 (REKLQRVHKKNQDTLKKKNTEDSTAKS) [Peptide P9] | 42% and 43% | response greater than that of control groups but with less intensity | 1.25 |  |  |
| DAFKDKKTGSGVSENPFILEAKVRA (modifications not checked) [DbpA-derived synthetic peptide P4] |  |  |  |  | inhibition of decorin attachment to DbpA-coated wells [4]: 64% |
| REKLQRVHKKNQDTLKKKNTEDSTAKS (modifications not checked) [DbpA-derived synthetic peptide P9] |  |  |  |  | inhibition of decorin attachment to DbpA-coated wells [4]: 42%; inhibition of decorin attachment to DbpA-coated wells [5]: 43% |
| K-mod: DbpA with lysine residues chemically modified by DL-glyceraldehyde and sodium cyanoborohydride (protein, left off: small tags and cut ends, DbpA with lysine residues chemically modified by DL-glyceraldehyde and sodium cyanoborohydride) ATKIKLESSAKAIVDEIDAIKKKAASMGVNFDAFKDKKTGSGVSENPFILEAKVRATTVAEKFVIAIEEEATKLKETGSSGEFSAMYDLMFEVSKPLQELGIQEMTKTVSMAAEENPPTTAQGVLEIAKKMREKLQRVHKKNQDTLKKKNTEDSTAKS |  |  |  |  | binding of biotin-conjugated decorin to coated microtiter wells (decorin [6]): essentially unable to support the binding of decorin; decorin binding in Western ligand blot (decorin [7]): loss of decorin binding |
| AKVRATTVAEKFVIAIEEEATKLKE (modifications not checked) [DbpA-derived synthetic peptide P5] |  |  |  |  | inhibition of decorin attachment to DbpA-coated wells [4]: 92% |
